For assay [1], the target named is T1, cutinase from Colletotrichum capsici (Colletotrichum truncatum, UniProt P10951).
T1 construct: gene CUTA; purchased recombinant protein
The assay can be described thus: turbidimetric ester hydrolysis assay (OD630). The format is biochemical. The following applies: read-out: relative activity at 500 μg/ml berberine.

The target in assay [2] is T1, cutinase from Colletotrichum capsici. The assay can be described thus: turbidimetric hydrolysis assay (OD630). The class given is biochemical. The conditions noted are these: 30°C; substrate emulsion in 25 mM potassium phosphate pH 8.0, 0.5% gum arabic.

Each structure is given as a SMILES string.

T1 sequence (P10951 17-228): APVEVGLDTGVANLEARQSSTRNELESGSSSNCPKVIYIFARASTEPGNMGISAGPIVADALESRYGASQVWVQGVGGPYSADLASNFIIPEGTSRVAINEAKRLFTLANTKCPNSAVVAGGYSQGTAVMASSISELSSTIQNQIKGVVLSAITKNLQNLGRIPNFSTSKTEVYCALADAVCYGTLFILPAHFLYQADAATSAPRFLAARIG

For `COc1ccc2cc3[n+](cc2c1OC)CCc1cc2c(cc1-3)OCO2` [berberine], the activity at 500 µg/mL in assay [1] was 78%.
`CCCC(=O)OCC(COC(=O)CCC)OC(=O)CCC` [Tributyrin]: the “turbidimetric hydrolysis assay (OD630)” value in assay [2] is on record as “For short chain substrate tributyrin, berberine conferred slight decrease of relative activity”.
Still for that read-out and setting: then `CCCCCCCC(=O)OCC(COC(=O)CCCCCCC)OC(=O)CCCCCCC` [Glyceryl trioctanoate], with “larger reduced enzyme activities for longer chain substrates glyceryl trioctanoate and isopropyl myristate”.

Values taken from PMC7894860, “Molecular dynamics investigation of the interaction between Colletotrichum capsici cutinase and berberine suggested a mechanism for reduced enzyme activity” (PLoS ONE, 2021).
